The values below are quoted from earlier work in patent US9854807B2, “Potentiation of fixed coppers and other pesticides containing copper and supplementing plant nutrition” (priority 2014, dated 2018).

The conditions of the data set: terms used by Richardson.

With `[Cl-].[Cu+2].[Cu+2].[OH-].[OH-].[OH-]` [Copper(2) Oxychloride], the solubility in water entry was “essentially insoluble in water”.
